Assay results from patent publication US9290474B2, “Methods for making and using novel semi-synthetic small molecules for the treatment parasitic disease” (The Regents of the University of California, priority 2011, dated 2016).

Test system: T. brucei brucei
Assay: Screening against T. brucei (antiparasitic activity)
Assay type: cell-based, Trypanosoma brucei
Settings: initial screening

For CC1(C)C=CC(=O)[C@@]2(C)OOC3C[C@]12CCC3(O)CO (stereo partly shown) [Merulin C, merulin C], which “activity against T. brucei brucei” value is on record?
The value was 0.8 µM.
